Assay results: patent publication US20260015359A1, “2-(1,8-DIETHYL-1,3,4,9-TETRAHYDROPYRANO[3,4-B]INDOL-1-YL)-1-(PIPERIDIN-1-YL)ETHAN-1-ONE ETODOLAC DERIVATIVE AS EUKARYOTIC ELONGATION FACTOR 2 KINASE (EEF2K) INHIBITOR FOR TARGETED CANCER THERAPY” (BAHCESEHIR UNIVERSITESI, priority 2023, published 2026)

What was measured:
eEF2K [1] = molecular target: T1, eEF2K (Homo sapiens, UniProt O00418); test: Western blot analysis of eEF2K activity (p-EF2 Thr56) in MDA-MB-231 cells; type: cell-based; conditions: for eEF2K inhibition potential: western blot, 2.5 to 20 micromolar
T1 sequence (O00418 1-725): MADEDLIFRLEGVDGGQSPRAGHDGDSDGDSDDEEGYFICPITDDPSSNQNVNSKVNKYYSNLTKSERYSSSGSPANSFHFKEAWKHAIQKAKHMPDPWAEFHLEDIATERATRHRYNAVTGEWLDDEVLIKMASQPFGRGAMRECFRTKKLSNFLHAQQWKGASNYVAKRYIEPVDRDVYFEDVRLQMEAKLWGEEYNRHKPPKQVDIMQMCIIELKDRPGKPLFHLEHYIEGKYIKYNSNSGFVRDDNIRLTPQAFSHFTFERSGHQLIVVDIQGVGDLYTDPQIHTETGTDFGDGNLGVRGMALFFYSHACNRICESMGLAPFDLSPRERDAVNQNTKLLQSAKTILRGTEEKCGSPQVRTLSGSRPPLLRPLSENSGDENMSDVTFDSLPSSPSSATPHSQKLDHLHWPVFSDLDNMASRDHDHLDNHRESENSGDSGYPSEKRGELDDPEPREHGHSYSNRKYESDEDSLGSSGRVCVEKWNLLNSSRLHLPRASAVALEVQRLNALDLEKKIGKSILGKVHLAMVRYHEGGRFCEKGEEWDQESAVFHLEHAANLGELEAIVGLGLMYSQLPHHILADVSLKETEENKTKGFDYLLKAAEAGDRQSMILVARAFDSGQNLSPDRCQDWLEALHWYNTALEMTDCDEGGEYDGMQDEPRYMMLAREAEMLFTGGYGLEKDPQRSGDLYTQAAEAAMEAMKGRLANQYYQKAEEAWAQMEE
Protocol: MeOH: distilled water by volume (%) (70:30) was used as the mobile phase for HPLC analysis for the inventive compound and the flow rate was set to 1 mL min^−1. Triple negative breast cancer (TNBC) cell lines (ER-, PR- and HER2-) MDA-MB-231 cells were purchased from the American Type Culture Collection (ATCC) (Manassas, VA, USA). MDA-MB-231 cells were cultured in Dulbecco's modified Eagle's medium (DMEM)/F12 supplemented with 10% FBS (Fetal Bovine Serum) and 100 U mL^−1 penicillin and streptomycin. Specific antibodies (p-EF2 (Thr56) (2331S), eEF2 (2332S), eEF2K (3692S) and GAPDH (5174S)) were purchased from Cell Signaling Technology (CST).
Western blot analysis was carried out according to previously reported studies to evaluate the eEF2K inhibition activity for the synthesized compounds. The synthesized compound was applied to MDA-MB-231 cells in the range of various concentrations from 2.5 to 20 micromolar for 2 h treatment. The expression levels of p-EF2 (Thr56) inhibition and eEF2K activity were determined by using related antibodies such as p-EF2 (Thr56), eEF2 and eEF2K. Glyceraldehyde 3-phosphate dehydrogenase (GAPDH) was used as a loading control.
To determine the effects of the synthesized compounds in inhibiting eEF2K activity in TNBC, MDA-MB-231 cells, we performed western blot analysis at concentrations ranging from 2.5 micromolar to 20 micromolar in a dose-dependent manner. eEF2K inhibition was detected by decreased phosphorylation levels of EF2 (p-EF2-Thr-56), a direct downstream substrate of the enzyme.

cancer cells = conditions: literature; cited from earlier work
eEF2K [2] = molecular target: T1, eEF2K; conditions: literature; cited from earlier work

Compound | eEF2K inhibition potential (eEF2K [1]) | eEF2K inhibition (reported) (eEF2K [2]) | other results
CCc1cccc2c3c([nH]c12)C(CC)(CC(=O)O)OCC3 (racemic) [Etodolac, (R,S)-2-[1,8-diethyl-1,3,4-tetrahydropyrano [3,4-b]indol-1-yl]acetic acid] | did not show any inhibition potential |  | 
CCn1c(=O)c2cc(C(N)=O)c(N)nc2n(C2CC2)c1=O [A484954] |  |  | dose showing inhibition effect in cancer cells (cancer cells): 75 µM
CCc1cccc2c3c([nH]c12)C(CC)(CC(=O)N1CCCCC1)OCC3 (centres unmarked) [Inventive compound, 2-(1,8-diethyl-1,3,4,9-tetrahydropyrano [3,4-b]indol-1-yl)-1-(piperidin-1-yl) ethan-1-one] | high inhibition potential |  | eEF2K inhibition (reduced levels of p-EF2) (eEF2K [1]; 2.5 micromolar, compared to etodolac (EC)): marked inhibition; inhibition of phospho-eEF2 (Thr56) (eEF2K [1]; 20 micromolar, 2 hours treatment): highest inhibition
CCCCCCCCCCCCCCCCn1cc[n+](Cc2ccccc2)c1C.[I-] [NH125] |  | does not inhibit EF2K | 
Cc1cc(C=C2C(=O)C=CC2=O)cc(C)c1O [TX1918] |  | did not show significant eEF2K inhibition | concentration reported to inhibit eEF2K (eEF2K [2]): 10 µM
